Test results reported in ChEMBL document CHEMBL1909046, “DrugMatrix in vitro pharmacology data”.

Experiments:
[1] = target: T1, Alpha-2C adrenergic receptor (Homo sapiens, UniProt P18825); test: DRUGMATRIX: Adrenergic Alpha-2C radioligand binding (ligand: [3H] MK-912); format: cell membranes, Sf9, Membrane; conditions: sf9
T1 sequence (P18825 whole entry): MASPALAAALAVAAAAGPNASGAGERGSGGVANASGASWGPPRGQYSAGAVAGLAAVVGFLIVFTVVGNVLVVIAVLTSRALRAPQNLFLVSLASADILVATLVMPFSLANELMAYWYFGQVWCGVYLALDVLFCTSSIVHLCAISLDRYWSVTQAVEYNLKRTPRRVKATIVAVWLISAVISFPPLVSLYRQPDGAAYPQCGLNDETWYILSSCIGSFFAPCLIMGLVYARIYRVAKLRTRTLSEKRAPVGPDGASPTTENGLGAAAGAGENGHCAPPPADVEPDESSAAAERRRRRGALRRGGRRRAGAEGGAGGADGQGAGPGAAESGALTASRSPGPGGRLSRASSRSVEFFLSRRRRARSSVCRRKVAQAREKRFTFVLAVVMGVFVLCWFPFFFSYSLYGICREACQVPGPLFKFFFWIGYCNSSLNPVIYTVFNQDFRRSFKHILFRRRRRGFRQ

[2] = target: T2, Angiotensin-converting enzyme (Oryctolagus cuniculus, UniProt P12822); format: tissue-based, Lung;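 also: enzymatic inhibition of angiotensin-converting enzyme measured with FAPGG as the substrate; in other assays of this panel Not Active means under 50% inhibition at 10 µM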
T2 sequence (P12822 whole entry): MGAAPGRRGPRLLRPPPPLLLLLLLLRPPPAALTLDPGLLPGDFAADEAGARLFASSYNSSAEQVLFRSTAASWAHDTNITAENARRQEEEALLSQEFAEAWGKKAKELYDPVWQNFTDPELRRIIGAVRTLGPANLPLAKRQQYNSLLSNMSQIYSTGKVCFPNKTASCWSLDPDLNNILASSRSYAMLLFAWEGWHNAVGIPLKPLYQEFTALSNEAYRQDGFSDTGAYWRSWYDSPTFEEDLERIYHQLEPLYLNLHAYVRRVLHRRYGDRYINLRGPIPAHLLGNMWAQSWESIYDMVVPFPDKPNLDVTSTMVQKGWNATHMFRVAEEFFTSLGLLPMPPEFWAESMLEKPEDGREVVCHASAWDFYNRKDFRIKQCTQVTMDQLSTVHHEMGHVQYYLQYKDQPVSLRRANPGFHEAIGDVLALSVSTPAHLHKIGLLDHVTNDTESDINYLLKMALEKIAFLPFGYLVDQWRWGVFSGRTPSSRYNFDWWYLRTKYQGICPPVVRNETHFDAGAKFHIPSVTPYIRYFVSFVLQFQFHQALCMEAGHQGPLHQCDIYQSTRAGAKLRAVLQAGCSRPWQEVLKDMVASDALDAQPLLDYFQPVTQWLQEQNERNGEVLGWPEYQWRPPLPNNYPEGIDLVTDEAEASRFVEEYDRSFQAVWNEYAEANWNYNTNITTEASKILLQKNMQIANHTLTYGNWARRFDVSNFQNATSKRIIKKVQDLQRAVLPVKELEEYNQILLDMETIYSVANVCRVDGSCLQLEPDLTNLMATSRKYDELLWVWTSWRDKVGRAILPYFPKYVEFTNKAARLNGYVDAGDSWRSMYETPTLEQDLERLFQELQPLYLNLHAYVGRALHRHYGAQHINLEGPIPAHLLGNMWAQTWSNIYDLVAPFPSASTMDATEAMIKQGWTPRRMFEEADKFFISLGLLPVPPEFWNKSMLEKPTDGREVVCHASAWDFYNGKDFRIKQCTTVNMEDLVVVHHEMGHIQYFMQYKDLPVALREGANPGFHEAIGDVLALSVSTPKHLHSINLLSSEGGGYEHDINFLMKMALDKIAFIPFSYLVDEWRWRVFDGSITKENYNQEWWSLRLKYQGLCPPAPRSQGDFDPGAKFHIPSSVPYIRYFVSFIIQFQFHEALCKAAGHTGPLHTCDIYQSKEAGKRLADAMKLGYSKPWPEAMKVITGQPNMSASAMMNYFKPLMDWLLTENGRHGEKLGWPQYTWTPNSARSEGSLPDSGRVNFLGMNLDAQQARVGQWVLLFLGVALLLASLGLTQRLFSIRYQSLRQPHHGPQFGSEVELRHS

[3] = DRUGMATRIX: ATPase, Na+/K+ enzyme inhibition (substrate: ATP); format: tissue-based, Sus scrofa, Heart; conditions: Not Active = under 50% inhibition at 10 µM
Cytochrome P450 2A6 = target: T3, Cytochrome P450 2A6 (Homo sapiens, UniProt P11509); conditions: bti-tn-5b1-4; also: in other assays of this panel Not Active means under 50% inhibition at 10 µM
T3 sequence (P11509 whole entry): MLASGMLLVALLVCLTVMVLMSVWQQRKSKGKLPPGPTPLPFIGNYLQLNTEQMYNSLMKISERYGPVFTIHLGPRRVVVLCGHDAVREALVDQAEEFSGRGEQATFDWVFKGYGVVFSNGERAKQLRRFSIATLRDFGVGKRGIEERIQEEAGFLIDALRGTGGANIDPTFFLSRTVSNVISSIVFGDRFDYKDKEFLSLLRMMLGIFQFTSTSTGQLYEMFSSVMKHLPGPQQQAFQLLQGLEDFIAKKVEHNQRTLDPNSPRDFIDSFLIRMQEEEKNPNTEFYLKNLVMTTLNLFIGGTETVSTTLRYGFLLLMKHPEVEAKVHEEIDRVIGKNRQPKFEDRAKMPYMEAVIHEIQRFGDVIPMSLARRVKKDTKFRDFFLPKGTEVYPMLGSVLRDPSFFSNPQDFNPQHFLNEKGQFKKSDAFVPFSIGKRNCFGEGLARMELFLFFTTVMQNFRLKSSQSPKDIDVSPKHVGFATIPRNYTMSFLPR

[4] = DRUGMATRIX: Phosphodiesterase PDE3 enzyme inhibition (substrate: [3H]cAMP + cAMP); format: tissue-based, Homo sapiens; conditions: platelet; Not Active = under 50% inhibition at 10 µM
[5] = DRUGMATRIX: Glutamate, NMDA, Phencyclidine radioligand binding (ligand: [3H] TCP); format: cell membranes, Rattus norvegicus, Wistar, Cerebral cortex, Membrane; conditions: Not Active = under 50% inhibition at 10 µM
[6] = target: Receptor tyrosine-protein kinase erbB-2 (Homo sapiens, UniProt P04626); test: biochemical; format: cell-based, Insect cells; conditions: insect cells;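 also: inhibition of HER2 kinase enzyme activity, measured with Poly(Glu:Tyr) as the phosphorylation substrate; in other assays of this panel Not Active means under 50% inhibition at 10 µM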
Chain of Receptor tyrosine-protein kinase erbB-2 (P04626 whole entry): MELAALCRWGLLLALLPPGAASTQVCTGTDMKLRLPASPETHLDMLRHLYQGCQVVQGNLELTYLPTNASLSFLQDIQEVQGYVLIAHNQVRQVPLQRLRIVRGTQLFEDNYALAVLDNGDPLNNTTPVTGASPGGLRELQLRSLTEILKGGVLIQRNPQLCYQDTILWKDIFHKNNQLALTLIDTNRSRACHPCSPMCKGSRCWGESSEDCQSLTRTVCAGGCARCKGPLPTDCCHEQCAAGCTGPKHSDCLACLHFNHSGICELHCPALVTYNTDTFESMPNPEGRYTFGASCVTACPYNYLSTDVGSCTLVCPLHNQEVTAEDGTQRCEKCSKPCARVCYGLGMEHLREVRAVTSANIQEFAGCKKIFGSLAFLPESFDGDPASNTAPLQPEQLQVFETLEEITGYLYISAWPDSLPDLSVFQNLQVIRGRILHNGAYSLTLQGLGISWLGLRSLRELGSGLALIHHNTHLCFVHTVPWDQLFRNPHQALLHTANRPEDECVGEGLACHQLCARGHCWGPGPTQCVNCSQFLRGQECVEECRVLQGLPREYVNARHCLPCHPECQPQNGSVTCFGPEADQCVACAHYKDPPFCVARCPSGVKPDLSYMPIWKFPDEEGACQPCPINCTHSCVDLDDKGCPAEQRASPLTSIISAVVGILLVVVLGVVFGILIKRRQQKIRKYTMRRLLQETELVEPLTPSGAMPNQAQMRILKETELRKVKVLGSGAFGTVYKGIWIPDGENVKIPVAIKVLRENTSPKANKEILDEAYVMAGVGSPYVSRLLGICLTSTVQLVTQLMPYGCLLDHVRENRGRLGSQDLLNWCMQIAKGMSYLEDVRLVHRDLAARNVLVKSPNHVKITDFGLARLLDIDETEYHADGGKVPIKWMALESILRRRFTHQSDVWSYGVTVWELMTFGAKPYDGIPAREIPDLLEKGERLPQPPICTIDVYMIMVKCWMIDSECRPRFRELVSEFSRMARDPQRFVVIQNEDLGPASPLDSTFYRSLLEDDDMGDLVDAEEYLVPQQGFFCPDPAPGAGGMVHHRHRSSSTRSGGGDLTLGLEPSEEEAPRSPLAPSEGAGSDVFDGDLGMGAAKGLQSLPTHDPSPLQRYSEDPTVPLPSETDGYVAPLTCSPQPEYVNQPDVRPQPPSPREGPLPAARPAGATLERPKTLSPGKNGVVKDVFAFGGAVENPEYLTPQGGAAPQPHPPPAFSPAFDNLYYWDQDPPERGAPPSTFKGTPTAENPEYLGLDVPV

CCOC(=O)n1ccn(C)c1=S [CARBIMAZOLE]
Not Active: IC50 [1] | IC50 [2] | IC50 [3] | Ki [3] | IC50 (Cytochrome P450 2A6) | Ki (Cytochrome P450 2A6) | IC50 [4] | Ki [4] | IC50 [5] | Ki [5] | IC50 [6]

CN1C(=O)CN=C(c2ccccc2)c2cc(Cl)ccc21 [DIAZEPAM]
Not Active: IC50 [1] | IC50 [2] | IC50 [3] | Ki [3] | IC50 (Cytochrome P450 2A6) | Ki (Cytochrome P450 2A6) | IC50 [4] | Ki [4] | IC50 [5] | Ki [5] | IC50 [6]

NC[C@H]1O[C@H](O[C@H]2[C@H](O)[C@@H](O[C@H]3O[C@H](CO)[C@@H](O)[C@H](N)[C@H]3O)[C@H](N)C[C@@H]2N)[C@H](O)[C@@H](O)[C@@H]1O [KANAMYCIN]
Not Active: IC50 [1] | IC50 [2] | IC50 [3] | Ki [3] | IC50 (Cytochrome P450 2A6) | Ki (Cytochrome P450 2A6) | IC50 [4] | Ki [4] | IC50 [5] | Ki [5] | IC50 [6]

COc1cc(CNC(=O)CCCC/C=C/C(C)C)ccc1O [CAPSAICIN]
Not Active: IC50 [1] | IC50 [2] | IC50 [3] | Ki [3] | IC50 (Cytochrome P450 2A6) | Ki (Cytochrome P450 2A6) | IC50 [4] | Ki [4] | IC50 [5] | Ki [5] | IC50 [6]

C[C@H](C(=O)O)c1cccc(C(=O)c2ccccc2)c1 [DEXKETOPROFEN]
Not Active: IC50 [1] | IC50 [2] | IC50 [3] | Ki [3] | IC50 (Cytochrome P450 2A6) | Ki (Cytochrome P450 2A6) | IC50 [4] | Ki [4] | IC50 [5] | Ki [5] | IC50 [6]

NC[C@@H]1O[C@H](O[C@H]2[C@@H](O)[C@H](O[C@@H]3[C@@H](O)[C@H](N)C[C@H](N)[C@H]3O[C@H]3O[C@H](CN)[C@@H](O)[C@H](O)[C@H]3N)O[C@@H]2CO)[C@H](N)[C@@H](O)[C@@H]1O [FRAMYCETIN]
Not Active: IC50 [1] | IC50 [2] | IC50 [3] | Ki [3] | IC50 (Cytochrome P450 2A6) | Ki (Cytochrome P450 2A6) | IC50 [4] | Ki [4] | IC50 [5] | Ki [5] | IC50 [6]

C[C@]12C/C(=C/O)C(=O)C[C@@H]1CC[C@@H]1[C@@H]2CC[C@@]2(C)[C@H]1CC[C@]2(C)O [OXYMETHOLONE]
Not Active: IC50 [1] | IC50 [2] | IC50 [3] | Ki [3] | IC50 (Cytochrome P450 2A6) | Ki (Cytochrome P450 2A6) | IC50 [4] | Ki [4] | IC50 [5] | Ki [5] | IC50 [6]

C=C1/C(=C\C=C2/CCC[C@]3(C)[C@@H]([C@H](C)CCCC(C)C)CC[C@@H]23)C[C@@H](O)C[C@@H]1O [ALFACALCIDOL]
Not Active: IC50 [1] | IC50 [2] | IC50 [3] | Ki [3] | IC50 (Cytochrome P450 2A6) | Ki (Cytochrome P450 2A6) | IC50 [4] | Ki [4] | IC50 [5] | Ki [5] | IC50 [6]
